Converted amounts (≈) assume the structure as drawn. Like-named read-outs stand apart in the source and are kept apart here.
What was measured:
[1] = test system: P. vulgaris; assay: In vitro disk plate assay, Proteus vulgaris; assay type: cell-based
Experimental: (§1) The antibacterial spectrum of 4-(1-azindinyl)-6-phenyl-2-pyrimidinamine was determined in an in vitro disk plate assay. The assay procedure is as follows:
(§2) A solution of 4-(1-aziridinyl)-6-phenyl-2-pyrimidinamine was prepared at 1 mg/ml in distilled water. Paper assay disks (1/2 inch) were dripped into the solution and spotted on seeded agar trays.

[2] = test system: test organisms; assay: In vitro disk plate assay, test organisms other than Proteus vulgaris; assay type: cell-based
Experimental: as §1, §2

[3] = test system: L-1210 mouse leukemia cells; assay: L-1210 tube dilution assay, inhibition of mouse leukemia cell growth in vitro; assay type: cell-based; settings: for inhibition of growth of L-1210 cells (in words): in vitro; for IC50 / IC90: Mus musculus
Source text: ID50 and ID90 refer to the concentration of compound needed to inhibit cell growth by 50 and 90 percent, respectively.

[4] = test system: B. fragilis; assay: In vitro disk plate assay, B. fragilis; assay type: cell-based; settings: medium H (Schaedler Agar); 1 mg/ml in distilled water, 1/2 inch disk, 18 hours
Experimental: as §1, §2

[5] = test system: E. coli; assay: In vitro disk plate assay, E. coli; assay type: cell-based; settings: 1 mg/ml in distilled water, 1/2 inch disk, 18 hours
Experimental: as §1, §2

[6] = test system: S. lutea; assay: In vitro disk plate assay, S. lutea; assay type: cell-based; settings: 1 mg/ml in distilled water, 1/2 inch disk, 18 hours
Experimental: as §1, §2

[7] = test system: P388 leukemia; assay: In vivo P-388 mouse leukemia test (i.p.); settings: for % ILS (% increase in life span of treated compared to control animals) / Weight Change: daily × 9, i.p.; for % ILS (% increase in life span of treated compared to control animals): Klucel suspension; for Weight Change: between days 1 and 5 after tumor inoculation
Source text: (§3) The P-388 mouse leukemia test is described in detail in a publication by G. L. Neil, et al, Cancer Treatment Reports 63, 1971-1978 (1979).
(§4) ^a mg/kg/day, daily × 9, i.p., administered as a Klucel
(§5) ^b % increase in life span of treated compared to control animals.
(§6) ^c g/mouse between days 1 and 5 after tumor inoculation.
(§7) The NCI-designated criteria of significant activity for synthetic agents in these 3 systems are: for P388, 20% ILS; L1210 and B16, 25% ILS.

[8] = test system: S. aureus; assay: In vitro disk plate assay, S. aureus; assay type: cell-based; settings: medium B (Nutrient Agar); 1 mg/ml in distilled water, 1/2 inch disk, 18 hours
Experimental: as §1, §2

[9] = test system: M. avium; assay: In vitro disk plate assay, M. avium; assay type: cell-based; settings: medium D (Brain Heart Infusion Agar); 1 mg/ml in distilled water, 1/2 inch disk, 18 hours
Experimental: as §1, §2

[10] = test system: S. pastorianus; assay: In vitro disk plate assay, S. pastorianus; assay type: cell-based; settings: medium G (Gray's Medium); 1 mg/ml in distilled water, 1/2 inch disk, 18 hours
Experimental: as §1, §2

[11] = test system: S. pyogenes; assay: In vitro disk plate assay, S. pyogenes; assay type: cell-based, Streptococcus pyogenes; settings: medium D (Brain Heart Infusion Agar); 1 mg/ml in distilled water, 1/2 inch disk, 18 hours
Experimental: as §1, §2

[12] = test system: L-1210 leukemia; assay: In vivo L-1210 leukemia test in mice (i.p.); set-up: species or system mouse; settings: for % ILS (% increase in life span of treated compared to control animals) / Weight Change: i.p.-L1210, daily × 9, i.p.; for % ILS (% increase in life span of treated compared to control animals): Klucel suspension; for Weight Change: between days 1 and 5 after tumor inoculation
Source text: as §3, §4, §5, §6, §7

[13] = test system: K. pneumoniae; assay: In vitro disk plate assay, K. pneumoniae; assay type: cell-based; settings: medium A (Streptomycin Assay Agar); 1 mg/ml in distilled water, 1/2 inch disk, 18 hours
Experimental: as §1, §2

[14] = test system: S. schottmuelleri; assay: In vitro disk plate assay, S. schottmuelleri; assay type: cell-based; settings: medium B (Nutrient Agar); 1 mg/ml in distilled water, 1/2 inch disk, 18 hours
Experimental: as §1, §2

[15] = test system: Rhodopseudomonas spheroides; assay: In vitro disk plate assay, Rhodopseudomonas spheroides; assay type: cell-based; settings: medium F (Plate Count Medium); 1 mg/ml in distilled water, 1/2 inch disk, 18 hours
Experimental: as §1, §2

[16] = test system: Ps. aeruginosa; assay: In vitro disk plate assay, Ps. aeruginosa; assay type: cell-based; settings: medium B (Nutrient Agar); 1 mg/ml in distilled water, 1/2 inch disk, 18 hours
Experimental: as §1, §2

[17] = test system: B-16 melanoma; assay: In vivo B-16 melanoma test in mice (i.p.); set-up: species or system mouse; settings: for % ILS (% increase in life span of treated compared to control animals) / Weight Change: i.p.-B16, daily × 9, i.p.; for % ILS (% increase in life span of treated compared to control animals): Klucel suspension; for Weight Change: between days 1 and 5 after tumor inoculation
Source text: as §3, §4, §5, §6, §7

[18] = i.p.-P388, first series, 5 mg/kg/day
[19] = i.p.-P388, first series, 10 mg/kg/day
[20] = i.p.-P388, first series, 20 mg/kg/day
[21] = i.p.-P388, first series, 40 mg/kg/day
[22] = i.p.-P388, second series, 5 mg/kg/day
[23] = i.p.-P388, second series, 10 mg/kg/day
[24] = i.p.-P388, second series, 20 mg/kg/day
[25] = i.p.-P388, second series, 40 mg/kg/day
[26] = L1210 cells in vitro, 50 percent inhibition of cell growth, read-out: L1210 ID50
[27] = L1210 cells in vitro, 90 percent inhibition of cell growth, read-out: L1210 ID90

Nc1nc(Cl)cc(-c2ccccc2)n1 [Example 1, 4-chloro-6-phenyl-2-pyrimidinamine]
zone of inhibition at 1000 µg/mL ([1]; 18 h, Proteus vulgaris, above-identified in vitro disk plate assay, medium not given): 20 mm | antibacterial activity against the other test organisms (in words) [2]: No other antibacterial activity against the test organisms was observed | inhibition of growth of L-1210 cells (in words) [3]: inhibit the growth of L-1210 mouse leukemia cells in vitro

Nc1nc(-c2ccccc2)cc(N2CC2)n1 [Example 2, 4-(1-aziridyl)-6-phenyl-2-pyrimidinamine]
Zone of Inhibition [4]: 23 mm | Zone of Inhibition ([5]; medium B (Nutrient Agar)): 0 mm | Zone of Inhibition ([5]; medium E (Synthetic Medium)): 0 mm | Zone of Inhibition ([6]; S. lutea+, medium B (Nutrient Agar)): 0 mm | Zone of Inhibition ([6]; S. luteau, medium C (PenAssay Seed Agar)): 0 mm | Zone of Inhibition ([1]; medium B (Nutrient Agar), 1 mg/ml in distilled water, 1/2 inch disk, 18 hours): 0 mm | % ILS (% increase in life span of treated compared to control animals) [7, 18]: 10% | Weight Change [7, 18]: +1.8 g/mouse | % ILS (% increase in life span of treated compared to control animals) [7, 19]: 11% | Weight Change [7, 19]: +2.1 g/mouse | % ILS (% increase in life span of treated compared to control animals) [7, 20]: 25% | Weight Change [7, 20]: -0.7 g/mouse | % ILS (% increase in life span of treated compared to control animals) [7, 21]: 47% | Weight Change [7, 21]: -3.8 g/mouse | % ILS (% increase in life span of treated compared to control animals) [7, 22]: 14% | Weight Change [7, 22]: +1.8 g/mouse | % ILS (% increase in life span of treated compared to control animals) [7, 23]: 11% | Weight Change [7, 23]: +2.1 g/mouse | % ILS (% increase in life span of treated compared to control animals) [7, 24]: 17% | Weight Change [7, 24]: +0.5 g/mouse | % ILS (% increase in life span of treated compared to control animals) [7, 25]: 26% | Weight Change [7, 25]: -2.0 g/mouse | in vivo activity against P388 leukemia (in words) ([7]; mice): demonstrated activity in vivo against P388 and L-1210 leukemias in mice | Zone of Inhibition [8]: 0 mm | Zone of Inhibition [9]: 0 mm | Zone of Inhibition [10]: 0 mm | Zone of Inhibition [11]: 21 mm | % ILS (% increase in life span of treated compared to control animals) ([12]; 5 mg/kg/day): 0% | Weight Change ([12]; 5 mg/kg/day): +1.2 g/mouse | % ILS (% increase in life span of treated compared to control animals) ([12]; 10 mg/kg/day): 0% | Weight Change ([12]; 10 mg/kg/day): +1.5 g/mouse | % ILS (% increase in life span of treated compared to control animals) ([12]; 20 mg/kg/day): 9% | Weight Change ([12]; 20 mg/kg/day): +0.6 g/mouse | % ILS (% increase in life span of treated compared to control animals) ([12]; 40 mg/kg/day): 24% | Weight Change ([12]; 40 mg/kg/day): -2.4 g/mouse | in vivo activity against L-1210 leukemia (in words) ([12]; mice): demonstrated activity in vivo against P388 and L-1210 leukemias in mice | Zone of Inhibition [13]: 0 mm | Zone of Inhibition [14]: 0 mm | Zone of Inhibition [15]: 18 mm | Zone of Inhibition [16]: 0 mm | inhibition of growth of L-1210 cells (in words) [3]: inhibit the growth of L-1210 mouse leukemia cells in vitro | % ILS (% increase in life span of treated compared to control animals) ([17]; 6.3 mg/kg/day): 2% | Weight Change ([17]; 6.3 mg/kg/day): +1.2 g/mouse | % ILS (% increase in life span of treated compared to control animals) ([17]; 12.5 mg/kg/day): 4% | Weight Change ([17]; 12.5 mg/kg/day): +0.3 g/mouse | % ILS (% increase in life span of treated compared to control animals) ([17]; 25 mg/kg/day): 11% | Weight Change ([17]; 25 mg/kg/day): -0.5 g/mouse | % ILS (% increase in life span of treated compared to control animals) ([17]; 50 mg/kg/day): 7% | Weight Change ([17]; 50 mg/kg/day): -3.0 g/mouse | in vivo activity against B-16 melanoma (in words) ([17]; mice): no in vivo activity in mice against B-16 melanoma

Nc1nc(-c2ccccc2)c(Br)c(N2CC2)n1 [Example 3, 4-(1-aziridyl)-5-bromo-6-phenyl-2-pyrimidinamine]
inhibition of growth of L-1210 cells (in words) [3]: inhibit the growth of L-1210 mouse leukemia cells in vitro

Nc1nc(Cl)c(F)c(-c2ccccc2)n1 [Example 4, 4-chloro-5-fluoro-6-phenyl-2-pyrimidinamine]
inhibition of growth of L-1210 cells (in words) [3]: inhibit the growth of L-1210 mouse leukemia cells in vitro

Nc1nc(NCCN2CC2)c(F)c(-c2ccccc2)n1 [Example 5, N'-[2-(1-aziridyl)ethyl]-5-fluoro-6-phenyl-2,4-pyrimidinediamine]
inhibition of growth of L-1210 cells (in words) [3]: inhibit the growth of L-1210 mouse leukemia cells in vitro

Nc1nc(Cl)c(Br)c(-c2ccccc2)n1 [Example 6, 5-bromo-4-chloro-6-phenyl-2-pyrimidinamine]
inhibition of growth of L-1210 cells (in words) [3]: inhibit the growth of L-1210 mouse leukemia cells in vitro

Nc1nc(Cl)c(Cl)c(-c2ccccc2)n1 [Example 7, 4,5-dichloro-6-phenyl-2-pyrimidinamine]
inhibition of growth of L-1210 cells (in words) [3]: inhibit the growth of L-1210 mouse leukemia cells in vitro

Nc1nc(Cl)c(I)c(-c2ccccc2)n1 [Example 8, 4-chloro-5-iodo-6-phenyl-2-pyrimidinamine]
inhibition of growth of L-1210 cells (in words) [3]: inhibit the growth of L-1210 mouse leukemia cells in vitro

Nc1nc(-c2ccccc2)c(Br)c(N2CC2)n1 [drawing 5]
IC50 ([3]; L1210, read-out: L1210 ID50): 1.2 µg/mL (≈ 4.12 µM) | IC90 ([3]; L1210, read-out: L1210 ID90): 3.2 µg/mL (≈ 11 µM)

Nc1nc(NCCN2CC2)c(F)c(-c2ccccc2)n1 [drawing 6]
IC50 ([3]; L1210, read-out: L1210 ID50): 0.78 µg/mL (≈ 2.85 µM) | IC90 ([3]; L1210, read-out: L1210 ID90): 2.1 µg/mL (≈ 7.68 µM)

Nc1nc(Cl)c(F)c(-c2ccccc2)n1 [drawing 7]
IC50 [3, 26]: 0.18 µg/mL (≈ 0.805 µM) | IC90 [3, 27]: 0.55 µg/mL (≈ 2.46 µM)

Nc1nc(Cl)c(Cl)c(-c2ccccc2)n1 [drawing 8]
IC50 [3, 26]: 0.91 µg/mL (≈ 3.79 µM) | IC90 [3, 27]: 2.1 µg/mL (≈ 8.75 µM)

Nc1nc(Cl)c(I)c(-c2ccccc2)n1 [drawing 9]
IC50 [3, 26]: 1.8 µg/mL (≈ 5.43 µM) | IC90 [3, 27]: 3.9 µg/mL (≈ 11.8 µM)

Nc1nc(Cl)c(Br)c(-c2ccccc2)n1 [drawing 10]
IC50 [3, 26]: 0.64 µg/mL (≈ 2.25 µM) | IC90 [3, 27]: 1.6 µg/mL (≈ 5.62 µM)

Nc1nc(Cl)cc(-c2ccccc2)n1 [drawing 11]
IC50 [3, 26]: 8.2 µg/mL (≈ 39.9 µM) | IC90 [3, 27]: 19 µg/mL (≈ 92.4 µM)

From US4795812A, “4-substituted-6-aryl-pyrimidine compounds” (The Upjohn Company, priority 1986, dated 1989)
